The source of these data is patent US20260265301A1, “LONG-ACTING K-OPIOID RECEPTOR AGONIST” (CHENGDU AODA BIOTECHNOLOGY CO., LTD, priority 2023, published 2026).

A word on the EC50: it is the midpoint of the concentration-response curve.

For series [1], the target named is T1, human κ opioid receptor (OPRK1) (Homo sapiens, UniProt P41145).
T1 construct: expressed in transfected cells; host or cells: CHO-K1
Kind of series: Agonist activity: inhibition of forskolin-stimulated cAMP release (HTRF) in CHO-K1 cells stably expressing opioid receptors. It is filed as cell-based. The conditions noted are these: for Relative Activity %: relative to Difelikefalin = 100%. An excerpt: Gi-coupled human κ opioid receptor (OPRK1), upon stimulation with its specific opioid receptor agonists, can inhibit the intracellular adenylate cyclase pathway, and decrease cAMP levels. Forskolin can stimulate cAMP release in cell lines highly expressing opioid receptors. By stimulating cell lines stably transfected with opioid receptors, the inhibitory effect of a test compound on forskolin-stimulated cAMP release can be measured to determine the activity of the compound. The relative light units (RLU) from the cells after stimulation with different doses were measured via the homogeneous time-resolved fluorescence (HTRF) technique, and the EC50 of the agonist was subsequently calculated. This activity determination method is a currently commonly used method for determining the activities of opioid receptor agonists at home and abroad.
A CHO-K1 cell line stably expressing opioid receptors was used. Stably transfected cells were stimulated with various concentrations of agonists (under the stimulation of a certain concentration of forskolin). The relative light units from the cells after stimulation with different doses were measured, from which the EC50 value of the agonist was subsequently obtained by calculation.
For orientation: TR-FRET usually uses a lanthanide donor and a delayed reading to cut background.

A short description of series [2]: Preliminary pharmacokinetic properties after subcutaneous administration. It is filed as in vivo. The following applies: cynomolgus monkey; male Macaca fascicularis, subcutaneous (SC), 0.1 mg/kg, plasma, LC-MS; read-out: t½ (converted). How it is done:
The compound with the best activity was selected for determination of its preliminary pharmacokinetic properties. Two male Macaca fascicularis were used as experimental animals. A subcutaneous administration was performed at a dose of 0.1 mg/kg. Venous blood samples were collected before administration (0 h) and at 1 h, 2 h, 3 h, 4 h, 8 h, 12 h, 18 h, 24 h, 48 h, 96 h, 144 h, and 168 h post-administration. Plasma samples were separated by centrifugation. The plasma concentration of the compound in the plasma samples was determined using liquid chromatography-mass spectrometry.

The structures appear in SMILES notation. Where a SMILES comes first, the peptide text is derived from it. Bridges are numbered along the chain shown (N, C = ends). Roman numbers before positions name the chains, in order. [ ]: non-standard residue; d: D form. The star is where a group is joined. X1 = O=C(O)CCCCCCCCCCCCCCCCC(=O)N[C@@H](CCC(=O)NCCOCCOCCOCCOCC(=O)*)C(=O)O; Api = NC1(C(=O)O)CCNCC1

T1 sequence (P41145 whole entry): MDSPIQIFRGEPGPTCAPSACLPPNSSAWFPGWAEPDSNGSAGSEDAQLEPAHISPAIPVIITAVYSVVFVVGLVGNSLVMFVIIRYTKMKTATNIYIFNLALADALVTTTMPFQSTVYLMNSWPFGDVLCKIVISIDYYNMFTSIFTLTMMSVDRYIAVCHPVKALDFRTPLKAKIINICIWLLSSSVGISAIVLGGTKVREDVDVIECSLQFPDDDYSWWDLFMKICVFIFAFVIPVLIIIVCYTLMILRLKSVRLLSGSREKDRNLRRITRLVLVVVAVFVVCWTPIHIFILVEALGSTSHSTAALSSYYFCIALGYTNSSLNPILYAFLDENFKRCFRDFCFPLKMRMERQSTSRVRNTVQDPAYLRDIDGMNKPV

On to `CCOc1ccc(C[C@@H](NC(=O)[C@H](N)Cc2ccccc2)C(=O)N[C@H](CC(C)C)C(=O)N[C@H](CCCCN)C(=O)N2CCC(N)(C(=O)N[C@@H](CCCCNC(=O)COCCOCCOCCOCCNC(=O)CC[C@H](NC(=O)CCCCCCCCCCCCCCCCC(=O)O)C(=O)O)C(N)=O)CC2)cc1` [Compound 1, D-Phe-D-Tyr(Et)-D-Leu-D-Lys-4-aminopiperidine-4-carboxamide-Lys(PEG4CH2CO-γGlu-octadecanedioic acid)-NH2], for which the “Relative Activity %” value in series [1] was determined as 15.6%.

For `CCOc1ccc(C[C@@H](NC(=O)[C@H](N)Cc2ccccc2)C(=O)N[C@H](CC(C)C)C(=O)N[C@H](CCCCN)C(=O)N2CCC(N)(C(=O)NCCOCC(=O)N[C@@H](CCCCNC(=O)COCCOCCOCCOCCNC(=O)CC[C@H](NC(=O)CCCCCCCCCCCCCCCCC(=O)O)C(=O)O)C(N)=O)CC2)cc1` [Compound 2, D-Phe-D-Tyr(Et)-D-Leu-D-Lys-4-aminopiperidine-4-carboxamide-PEG1CH2CO-Lys(PEG4CH2CO-γGlu-octadecanedioic acid)-NH2], the “Relative Activity %” value in series [1] is 20.7%.

For the molecule `CCOc1ccc(C[C@@H](NC(=O)[C@H](N)Cc2ccccc2)C(=O)N[C@H](CC(C)C)C(=O)N[C@H](CCCCN)C(=O)N2CCC(N)(C(=O)NCCOCCOCC(=O)N[C@@H](CCCCNC(=O)COCCOCCOCCOCCNC(=O)CC[C@H](NC(=O)CCCCCCCCCCCCCCCCC(=O)O)C(=O)O)C(N)=O)CC2)cc1` [Compound 3, D-Phe-D-Tyr(Et)-D-Leu-D-Lys-4-aminopiperidine-4-carboxamide-AEEA-Lys(PEG4CH2CO-γGlu-octadecanedioic acid)-NH2], in series [2], the half-life is 55.1 h. Further, in series [1], the “Relative Activity %” value is recorded as 23.8%. On to `CCOc1ccc(C[C@@H](NC(=O)[C@H](N)Cc2ccccc2)C(=O)N[C@H](CC(C)C)C(=O)N[C@H](CCCCN)C(=O)N2CCC(N)(C(=O)NCCOCCOCCOCCOCC(=O)N[C@@H](CCCCNC(=O)COCCOCCOCCOCCNC(=O)CC[C@H](NC(=O)CCCCCCCCCCCCCCCCC(=O)O)C(=O)O)C(N)=O)CC2)cc1` [Compound 4, D-Phe-D-Tyr(Et)-D-Leu-D-Lys-4-aminopiperidine-4-carboxamide-PEG4CH2CO-Lys(PEG4CH2CO-γGlu-octadecanedioic acid)-NH2], for which the “Relative Activity %” value in series [1] was determined as 17.2%. Same read-out and setting: under `COc1ccc(C[C@@H](NC(=O)[C@H](N)Cc2ccccc2)C(=O)N[C@H](CC(C)C)C(=O)N[C@H](CCCCN)C(=O)N2CCC(N)(C(=O)NCCOCCOCC(=O)N[C@@H](CCCCNC(=O)COCCOCCOCCOCCNC(=O)CC[C@H](NC(=O)CCCCCCCCCCCCCCCCC(=O)O)C(=O)O)C(N)=O)CC2)cc1` [Compound 5, D-Phe-D-Tyr(Me)-D-Leu-D-Lys-4-aminopiperidine-4-carboxamide-AEEA-Lys(PEG4CH2CO-γGlu-octadecanedioic acid)-NH2] stands 13.6%. For `CC(C)C[C@@H](NC(=O)[C@@H](Cc1ccc(Cl)cc1)NC(=O)[C@H](N)Cc1ccccc1)C(=O)N[C@H](CCCCN)C(=O)N1CCC(N)(C(=O)NCCOCCOCC(=O)N[C@@H](CCCCNC(=O)COCCOCCOCCOCCNC(=O)CC[C@H](NC(=O)CCCCCCCCCCCCCCCCC(=O)O)C(=O)O)C(N)=O)CC1` [Compound 6, D-Phe-D-Phe(4-Cl)-D-Leu-D-Lys-4-aminopiperidine-4-carboxamide-AEEA-Lys(PEG4CH2CO-γGlu-octadecanedioic acid)-NH2], the “Relative Activity %” value in series [1] came to 12.2%. The same measure, in the same setting: as for `CC(C)C[C@@H](NC(=O)[C@@H](Cc1ccc(F)cc1)NC(=O)[C@H](N)Cc1ccccc1)C(=O)N[C@H](CCCCN)C(=O)N1CCC(N)(C(=O)NCCOCCOCC(=O)N[C@@H](CCCCNC(=O)COCCOCCOCCOCCNC(=O)CC[C@H](NC(=O)CCCCCCCCCCCCCCCCC(=O)O)C(=O)O)C(N)=O)CC1` [Compound 7, D-Phe-D-Phe(4-F)-D-Leu-D-Lys-4-aminopiperidine-4-carboxamide-AEEA-Lys(PEG4CH2CO-γGlu-octadecanedioic acid)-NH2], the figure is 10.5%; as for `CCOc1ccc(C[C@@H](NC(=O)[C@H](N)Cc2ccccc2)C(=O)N[C@H](CC(C)C)C(=O)N[C@H](CCCCN)C(=O)N2CCC(N)(C(=O)NCCOCCOCC(=O)N[C@@H](CCCCNC(=O)COCCOCCOCCNC(=O)CC[C@H](NC(=O)CCCCCCCCCCCCCCCCC(=O)O)C(=O)O)C(N)=O)CC2)cc1` [Compound 8, D-Phe-D-Tyr(Et)-D-Leu-D-Lys-4-aminopiperidine-4-carboxamide-AEEA-Lys(PEG3CH2CO-γGlu-octadecanedioic acid)-NH2], 17.7%.

As to `CCOc1ccc(C[C@@H](NC(=O)[C@H](N)Cc2ccccc2)C(=O)N[C@H](CC(C)C)C(=O)N[C@H](CCCCN)C(=O)N2CCC(N)(C(=O)NCCOCCOCC(=O)N[C@@H](CCCCNC(=O)COCCOCCOCCOCCOCCNC(=O)CC[C@H](NC(=O)CCCCCCCCCCCCCCCCC(=O)O)C(=O)O)C(N)=O)CC2)cc1` [Compound 9, D-Phe-D-Tyr(Et)-D-Leu-D-Lys-4-aminopiperidine-4-carboxamide-AEEA-Lys(PEG5CH2CO-γGlu-octadecanedioic acid)-NH2], in series [1], the “Relative Activity %” value is 16.4%. On to `CCOc1ccc(C[C@@H](NC(=O)[C@H](N)Cc2ccccc2)C(=O)N[C@H](CC(C)C)C(=O)N[C@H](CCCCN)C(=O)N2CCC(N)(C(=O)NCC(=O)N[C@@H](CCCCNC(=O)COCCOCCOCCOCCNC(=O)CC[C@H](NC(=O)CCCCCCCCCCCCCCCCC(=O)O)C(=O)O)C(N)=O)CC2)cc1` [Compound 10, D-Phe-D-Tyr(Et)-D-Leu-D-Lys-4-aminopiperidine-4-carboxamide-Gly-Lys(PEG4CH2CO-γGlu-octadecanedioic acid)-NH2], for which the “Relative Activity %” value in series [1] is on record as 15.1%. For the molecule `CCOc1ccc(C[C@@H](NC(=O)[C@H](N)Cc2ccccc2)C(=O)N[C@H](CC(C)C)C(=O)N[C@H](CCCCN)C(=O)N2CCC(N)(C(=O)NCC(=O)NCC(=O)N[C@@H](CCCCNC(=O)COCCOCCOCCOCCNC(=O)CC[C@H](NC(=O)CCCCCCCCCCCCCCCCC(=O)O)C(=O)O)C(N)=O)CC2)cc1` [Compound 11, D-Phe-D-Tyr(Et)-D-Leu-D-Lys-4-aminopiperidine-4-carboxamide-Gly-Gly-Lys(PEG4CH2CO-γGlu-octadecanedioic acid)-NH2] (I: H-[Api]GGK(X1)-NH2 / II: H-[dF][dY](Et)[dL][dK]; amide I:1-II:C; N-terminus assumed), in series [1], the “Relative Activity %” value was 16.9%. Turning to `CCOc1ccc(C[C@@H](NC(=O)[C@H](N)Cc2ccccc2)C(=O)N[C@H](CC2CC2)C(=O)N[C@H](CCCCN)C(=O)N2CCC(N)(C(=O)NCCOCCOCC(=O)N[C@@H](CCCCNC(=O)COCCOCCOCCOCCNC(=O)CC[C@H](NC(=O)CCCCCCCCCCCCCCCCC(=O)O)C(=O)O)C(N)=O)CC2)cc1` [Compound 12, D-Phe-D-Tyr(Et)-D-Cyclopropylalanine-D-Lys-4-aminopiperidine-4-carboxamide-AEEA-Lys(PEG4CH2CO-γGlu-octadecanedioic acid)-NH2], the “Relative Activity %” value in series [1] is recorded as 15.2%.

The molecule `CC(C)C[C@@H](NC(=O)[C@@H](Cc1ccccc1)NC(=O)[C@H](N)Cc1ccccc1)C(=O)N[C@H](CCCCN)C(=O)N1CCC(N)(C(=O)O)CC1` [Difelikefalin, reference compound] registered a concentration giving a half-maximal response (EC50) in series [1] (CHO-K1 cell line stably expressing opioid receptors, forskolin-stimulated cAMP, HTRF) of 653 pM.
